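All cell lines were grown in 96-well plates and treated with compound for 48 hours. GI50 = concentration required for 50% inhibition of growth.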 Calls of active or inactive are those of the source. No stated cut-off is given here; in the data, active = GI50 up to about 1.1 µM and inactive = higher.
Key:
Experiment in all cases: NCI anticancer screen, dose series, 48 h
HOP-62 = system: HOP-62
NCI-H522 = system: NCI-H522
TK-10 = system: TK-10
CCRF-CEM = system: CCRF-CEM
RXF 393 = system: RXF 393
LOX IMVI = system: LOX IMVI
OVCAR-3 = system: OVCAR-3
MOLT-4 = system: MOLT-4
786-0 = system: 786-0
KM12 = system: KM12
NCI-H23 = system: NCI-H23
SNB-78 = system: SNB-78
UACC-62 = system: UACC-62
CAKI-1 = system: CAKI-1
SN12C = system: SN12C
NCI-H226 = system: NCI-H226
NCI/ADR-RES = system: NCI/ADR-RES
DU-145 = system: DU-145
MCF7 = system: MCF7
MDA-N = system: MDA-N

Measured: GI50

Cc1ccc2c(c1)-c1c3c(nn1-c1ccccc1)-c1ccccc1SC3O2 (stereo not drawn)
inactive: HOP-62 > 100 µM | NCI-H522 > 100 µM | TK-10 > 100 µM | CCRF-CEM > 100 µM | RXF 393 > 100 µM | LOX IMVI > 100 µM | OVCAR-3 > 100 µM | MOLT-4 > 100 µM | 786-0 > 100 µM | KM12 > 100 µM | NCI-H23 > 100 µM | SNB-78 > 100 µM

C/C(=N\NS(=O)(=O)c1ccc(C)cc1)c1c(O)cc(C)oc1=O
inactive: HOP-62 > 100 µM | UACC-62 > 100 µM | CAKI-1 > 100 µM | SN12C > 100 µM | TK-10 > 100 µM | CCRF-CEM > 100 µM | LOX IMVI > 100 µM | NCI-H226 > 100 µM | MOLT-4 > 100 µM | 786-0 > 100 µM | KM12 > 100 µM | NCI-H23 > 100 µM | SNB-78 > 100 µM

N#CCN1C(=O)c2cccc3cc([N+](=O)[O-])cc(c23)C1=O
inactive: HOP-62 41.1 µM | UACC-62 22.6 µM | SN12C 29.4 µM | TK-10 36.4 µM | CCRF-CEM 24.7 µM | RXF 393 28.4 µM | LOX IMVI 21.6 µM | NCI-H226 17.3 µM | OVCAR-3 29.4 µM | MOLT-4 26.4 µM | 786-0 60.3 µM | KM12 32 µM | NCI-H23 29.5 µM | SNB-78 71.6 µM

Cc1cc(C)c(-c2noc(-c3ccc(Cl)cc3)c2C2=NCCN2)c(C)c1
inactive: HOP-62 22.1 µM | UACC-62 16.8 µM | CAKI-1 76.4 µM | SN12C 20.3 µM | NCI-H522 > 10 µM | CCRF-CEM 20.7 µM | RXF 393 14.2 µM | LOX IMVI 20.3 µM | NCI-H226 23.8 µM | OVCAR-3 21 µM | MOLT-4 16.6 µM | 786-0 15.3 µM | KM12 21.6 µM | NCI-H23 17.4 µM | SNB-78 20.1 µM

C#CCNC(=O)NCCCCC(NC(C)=O)C(=O)NCc1ccccc1 (stereo not drawn)
inactive: HOP-62 > 100 µM | UACC-62 > 100 µM | CAKI-1 > 100 µM | SN12C > 100 µM | NCI-H522 > 100 µM | TK-10 > 100 µM | CCRF-CEM > 100 µM | RXF 393 > 100 µM | LOX IMVI > 100 µM | NCI-H226 > 100 µM | OVCAR-3 > 100 µM | MOLT-4 > 100 µM | 786-0 > 100 µM | KM12 > 100 µM | NCI-H23 > 100 µM | SNB-78 > 100 µM

CC(C)c1cc2c(O)c(c1)Cc1cc(C(C)C)cc(c1O)Cc1cc(C(C)C)cc(c1O)Cc1cc(C(C)C)cc(c1O)Cc1cc(C(C)C)cc(c1O)Cc1cc(C(C)C)cc(c1O)C2
inactive: HOP-62 > 100 µM | UACC-62 > 100 µM | SN12C > 100 µM | NCI-H522 > 100 µM | TK-10 > 100 µM | CCRF-CEM > 100 µM | RXF 393 > 100 µM | OVCAR-3 > 100 µM | MOLT-4 > 100 µM | 786-0 > 100 µM | KM12 > 100 µM | NCI-H23 > 100 µM | SNB-78 > 100 µM

O=C(/C=C/c1ccccc1F)c1ccc([N+](=O)[O-])cc1
inactive: HOP-62 32.6 µM | UACC-62 22.9 µM | CAKI-1 15.5 µM | SN12C 37.8 µM | TK-10 23.9 µM | RXF 393 19.5 µM | LOX IMVI 4.35 µM | OVCAR-3 24.6 µM | MOLT-4 2.07 µM | 786-0 26.8 µM | NCI-H23 31.2 µM | SNB-78 37.2 µM

N=S(c1ccccc1)c1ccccc1[N+](=O)[O-] (stereo not drawn)
inactive: HOP-62 25.6 µM | UACC-62 16.8 µM | CAKI-1 13.7 µM | SN12C 15.8 µM | NCI-H522 4.71 µM | TK-10 20.4 µM | CCRF-CEM 11.1 µM | LOX IMVI 13.1 µM | NCI-H226 11.9 µM | OVCAR-3 10.6 µM | MOLT-4 25.3 µM | 786-0 14.9 µM | KM12 18.1 µM | NCI-H23 20 µM | SNB-78 36.1 µM

Cc1cc(C)n2nc3nc(N)c(C#N)c(-c4ccccc4)c3c2n1
inactive: HOP-62 > 100 µM | UACC-62 > 100 µM | CAKI-1 > 100 µM | NCI/ADR-RES > 100 µM | SN12C > 100 µM | NCI-H522 > 100 µM | TK-10 > 100 µM | CCRF-CEM > 100 µM | RXF 393 > 100 µM | LOX IMVI > 100 µM | NCI-H226 > 78.5 µM | DU-145 > 100 µM | OVCAR-3 > 73.6 µM | MOLT-4 > 100 µM | MCF7 > 100 µM | 786-0 > 100 µM | KM12 > 100 µM | NCI-H23 > 100 µM | MDA-N > 100 µM

Cc1ccc(S(=O)(=O)NCCCN(CCCNS(=O)(=O)c2ccc(C)cc2)S(=O)(=O)c2ccc(C)cc2)cc1
inactive: HOP-62 > 100 µM | UACC-62 > 100 µM | SN12C > 100 µM | NCI-H522 > 100 µM | TK-10 > 100 µM | CCRF-CEM > 100 µM | RXF 393 > 100 µM | LOX IMVI > 100 µM | NCI-H226 > 100 µM | OVCAR-3 > 100 µM | MOLT-4 > 100 µM | 786-0 > 100 µM | KM12 89.1 µM | NCI-H23 > 100 µM | SNB-78 > 100 µM

COc1ccc(NC(=O)C/C(C)=N\N=C(N)N)c([N+](=O)[O-])c1
inactive: HOP-62 > 100 µM | UACC-62 > 100 µM | CAKI-1 > 100 µM | SN12C > 100 µM | NCI-H522 > 100 µM | TK-10 > 100 µM | CCRF-CEM > 100 µM | RXF 393 > 100 µM | LOX IMVI 33.9 µM | NCI-H226 > 100 µM | OVCAR-3 > 100 µM | MOLT-4 > 100 µM | 786-0 > 100 µM | KM12 > 100 µM | NCI-H23 > 100 µM | SNB-78 > 100 µM

CCCN(CCC)C(=O)C(=O)c1c(N)[nH]n(-c2ccccc2)c1=O
inactive: UACC-62 > 100 µM | CAKI-1 > 100 µM | SN12C > 100 µM | NCI-H522 > 100 µM | TK-10 > 100 µM | CCRF-CEM 93.3 µM | LOX IMVI > 100 µM | NCI-H226 > 100 µM | OVCAR-3 > 100 µM | MOLT-4 > 100 µM | 786-0 > 100 µM | KM12 96.4 µM | NCI-H23 > 100 µM | SNB-78 > 100 µM

CN/N=C(/c1nc2ccc([N+](=O)[O-])cc2nc1O)C(O)c1ccc(C(O)/C(=N\NC)c2nc3ccc([N+](=O)[O-])cc3nc2O)cc1 (stereo not drawn)
inactive: HOP-62 42.2 µM | UACC-62 44.9 µM | CAKI-1 > 100 µM | TK-10 > 100 µM | CCRF-CEM 19.8 µM | RXF 393 > 100 µM | LOX IMVI > 100 µM | NCI-H226 > 100 µM | OVCAR-3 > 100 µM | MOLT-4 48.2 µM | 786-0 > 100 µM | KM12 > 100 µM | NCI-H23 > 100 µM | SNB-78 > 100 µM

COC(=O)C(=O)CC(=O)CCn1[nH]c(=O)c(Cl)c(Cl)c1=O
inactive: HOP-62 > 100 µM | UACC-62 > 100 µM | CAKI-1 > 100 µM | SN12C > 100 µM | NCI-H522 > 100 µM | TK-10 > 100 µM | RXF 393 > 100 µM | LOX IMVI > 100 µM | NCI-H226 > 100 µM | OVCAR-3 > 100 µM | 786-0 > 100 µM | KM12 > 100 µM | NCI-H23 > 100 µM | SNB-78 > 100 µM

c1ccc2c(c1)SC(=C1Sc3ccccc3S1)S2
inactive: HOP-62 > 100 µM | UACC-62 > 100 µM | CAKI-1 > 100 µM | SN12C > 100 µM | TK-10 > 100 µM | CCRF-CEM > 100 µM | RXF 393 > 100 µM | LOX IMVI 75.7 µM | OVCAR-3 > 100 µM | MOLT-4 > 100 µM | 786-0 > 100 µM | NCI-H23 > 100 µM | SNB-78 > 100 µM

CN(C)/C=N/c1nc2c(ncn2C2OC(CO)C(O)C2O)c(=O)[nH]1 (stereo not drawn)
inactive: HOP-62 > 100 µM | UACC-62 > 100 µM | CAKI-1 > 100 µM | SN12C > 100 µM | TK-10 > 100 µM | RXF 393 > 100 µM | NCI-H226 > 100 µM | OVCAR-3 > 100 µM | MOLT-4 > 100 µM | 786-0 > 100 µM | KM12 > 100 µM | NCI-H23 > 100 µM | SNB-78 > 100 µM

CCCCCCN(CCCCCC)C(=O)Cc1c2n(c3ccccc13)Cc1ccccc1-2
inactive: HOP-62 86.7 µM | UACC-62 > 100 µM | CAKI-1 > 100 µM | SN12C 52.5 µM | NCI-H522 32.5 µM | TK-10 51.8 µM | CCRF-CEM 28.1 µM | RXF 393 26.5 µM | LOX IMVI 69.8 µM | NCI-H226 > 100 µM | OVCAR-3 43.4 µM | MOLT-4 33.3 µM | 786-0 85.1 µM | KM12 42.1 µM | NCI-H23 49.8 µM | SNB-78 71.8 µM

CSC(=S)N(C)C [CYSTOGON]
inactive: HOP-62 > 100 µM | UACC-62 > 100 µM | CAKI-1 > 100 µM | NCI/ADR-RES > 100 µM | SN12C > 100 µM | NCI-H522 > 100 µM | TK-10 > 100 µM | CCRF-CEM > 100 µM | RXF 393 > 100 µM | LOX IMVI > 100 µM | NCI-H226 > 100 µM | DU-145 > 100 µM | OVCAR-3 > 100 µM | MOLT-4 > 100 µM | MCF7 > 100 µM | 786-0 > 100 µM | KM12 > 100 µM | NCI-H23 > 100 µM | MDA-N > 100 µM
